Experimental findings from US20200155500A1, “COMPOSITION FOR PREVENTING AND TREATING PANCREATITIS CONTAINING NAPHTHOQUINONE-BASED COMPOUND AS ACTIVE INGREDIENT” (NADIANBIO Ltd., priority 2015, published 2020) are described below.

Each structure is given as a SMILES string.

Assay [1] deals with caerulein mediated pancreatitis. Briefly: Morphological changes of pancreas tissue (hematoxylin-eosin, histological scores), preventive treatment. It is filed as in vivo. Conditions: C57/BL6 mouse, oral 10, 20, 40 mg/kg one day before caerulein; dose-dependently. On the procedure: (§1) In this invention, C57BL/6 mice at the body weight of about 22±2 g were used. All the mice were raised in a sterile animal laboratory with constant temperature (22˜26[…]) and humidity (55˜60%). The mice were adapted for 1 week while feeding with normal solid feed (Samtaco Korea) and water. All the experiments were performed according to the guide for the care and use of laboratory animals set by Wonkwang University.
Pancreas tissues were separated, fixed in 10% formalin for 24 hours at 4[…], demineralized with 10% ethylenediaminetetra-acetic acid (EDTA, pH 7.4) solution, washed, dehydrated, embedded in paraffin and cut into 5 μm sections. The sections were stained with hematoxylin-eosin, followed by observation under optical microscope.

Assay [2] relates to IL-1β. Briefly: Expression of IL-1β in pancreas by real-time PCR, caerulein mediated pancreatitis model. Format: in vivo. The conditions noted are these: C57BL/6 mice, oral treatment one day before caerulein, vs caerulein treated group. On the procedure: as §1
(§2) Serum was obtained from the animal model and then the level of serum IL-1β was measured by using mouse IL-1β ELISA kit (BD, USA). First, nasal lavage fluid or diluted serum was loaded in the 96-well plate coated with the mouse IL-1β specific antibody, followed by reaction at room temperature for 2 hours. After washing the plate, biotin conjugate was added thereto, followed by reaction at room temperature for 1 hour. After washing the plate, streptavidin-HRP working solution was added thereto, followed by reaction. After washing the plate again, stabilized chromogen was added thereto, followed by reaction. Then, OD450 was measured. In addition, the expression of IL-1β in pancreas was confirmed by real-time PCR in each pancreas tissue. To extract total RNA, 1 mL of TRIzol (Invitrogen, USA) was added to 20 mg of each pancreas tissue, which stood on ice for 5 minutes to lyse cells. […] The RNA was quantified by using Nanodrop 2000 (Thermo, USA). […]

Assay [3] relates to NQO-1 knock out mouse. Briefly: Lung damage induced by pancreatitis, NQO-1 knock out mouse. It is filed as in vivo. The conditions noted are these: cotreatment with β-lapachone.
Assay [4] deals with caerulein mediated pancreatitis. The assay can be described thus: Ratio of pancreas weight to body weight, caerulein mediated pancreatitis model. Format: in vivo. The conditions noted are these: C57BL/6 mice, oral 10, 20, 40 mg/kg one day before caerulein (50 μg/kg i.p. x6); vs caerulein treated group. On the procedure:
as §1, with “University. […] When pancreatitis is developed, the weight of pancreas is known to be increased because of edema. Thus, blood was extracted from all the animals finished with the experiment and then the ratio of the pancreas weight to the body weight was measured. […] After blood was extracted, the pancreas was cut out and the weight of the pancreas to the body weight was measured by the pancreas weight (wet pancreas weight)/body weight (wet body weight) formula of Grady method.” for “University.”

The test system of assay [5] is lipase. The assay can be described thus: Serum lipase activity in NQO-1 knock out mouse. It is filed as in vivo. The conditions noted are these: NQO1 knock out mouse; caerulein treated group vs β-lapachone cotreated group. On the procedure:
(§3) To confirm whether or not the protective effect of β-lapachone on pancreatitis was via the activation pathway of NQO-1 enzyme, the present inventors investigated the weight of pancreas, the activities of serum amylase and lipase, and the concentration of serum IL-1β in NQO-1 knock out mouse.
(§4) Then, the ratio of the pancreas weight to the body weight was calculated by the same manner as described in Experimental Example 2. The activities of serum amylase and lipase were measured using a kit by the same manner as described in Experimental Example 3.

Assay [6] deals with NQO-1 knock out mouse. The assay can be described thus: Ratio of pancreas weight to body weight in NQO-1 knock out mouse. It is filed as in vivo. Conditions: NQO1 knock out mouse; caerulein treated group vs β-lapachone cotreated group. How it is done: as §3, §4
The subject of assay [7] is lipase. The assay can be described thus: Serum lipase activity, caerulein mediated pancreatitis model. Conditions: C57BL/6 mice, oral 10, 20, 40 mg/kg one day before caerulein; vs caerulein treated group. Format: in vivo. How it is done:
as §1
(§5) Serum was obtained and then OD595 and OD412 were measured by using amylase activity analysis kit (DAMY-100; BioAssay Systems, USA) and lipase activity analysis kit (DLPS-100; BioAssay Systems, USA) to investigate the activities of amylase and lipase.

The subject of assay [8] is IL-1β. Briefly: Serum IL-1β level by ELISA, caerulein mediated pancreatitis model. It is filed as in vivo. The conditions noted are these: C57BL/6 mice, oral 10, 20, 40 mg/kg one day before caerulein, dose-dependently, vs caerulein treated group. How it is done:
as §1, §2
For orientation: In an ELISA, binding on a coated surface is turned into a signal by an enzyme label.

In assay [9] the test system is amylase. The assay can be described thus: Serum amylase activity in NQO-1 knock out mouse. Format: in vivo. Conditions: NQO1 knock out mouse; caerulein treated group vs β-lapachone cotreated group. On the procedure: as §3, §4
Assay [10] has as its system pancreatitis induced by caerulein. The assay can be described thus: Therapeutic effect on caerulein-induced pancreatitis, pancreas tissue morphology. It is filed as in vivo, C57BL/6 mice. Conditions: intravenous injection six hours after the final caerulein administration; 10, 20, 40 mg/kg. How it is done: as §1
Assay [11] relates to NQO-1 knock out mouse. Briefly: Morphological changes of pancreas tissue in NQO1 knock out mouse. The conditions noted are these: 40 mg/kg plus caerulein, vs caerulein treated group. Format: in vivo. The text has this: β-lapachone is known as a co-substrate of NQO-1 (NAD(P)H: quinone oxidoreductase-1). So, in order to confirm whether or not the pancreas protection effect of β-lapachone was via the activation pathway of NQO-1, the morphological changes of pancreas were investigated in NQO-1 knock out mouse.
Then, the pancreas tissues were stained with hematoxylin-eosin by the same manner as described in Experimental Example 5, followed by observation under optical microscope.

Assay [12] has as its system amylase. The assay can be described thus: Serum amylase activity, caerulein mediated pancreatitis model. Format: in vivo. Conditions: C57BL/6 mice, oral 10, 20, 40 mg/kg one day before caerulein; vs caerulein treated group. How it is done: as §1, §5
In assay [13] the test system is IL-1β. The assay can be described thus: Serum IL-1β concentration in NQO-1 knock out mouse. It is filed as in vivo. The conditions noted are these: NQO1 knock out mouse; caerulein treated group vs β-lapachone cotreated group. On the procedure:
as §3, §4

For assay [14], the system named is lung damage induced by caerulein. The assay can be described thus: Lung damage induced by pancreatitis, C57/BL6 mouse. Conditions: cotreatment 10, 20, 40 mg/kg. Format: in vivo.
For another assay, the system named is MCP-1. The assay can be described thus: Expression of MCP-1 in pancreas by RT-PCR, caerulein mediated pancreatitis model. Conditions: C57BL/6 mice, oral 10, 20, 40 mg/kg one day before caerulein, vs caerulein treated group. Format: in vivo. How it is done: as §1

On to `CC1(C)CCC2=C(O1)c1ccccc1C(=O)C2=O` [β-lapachone], for which the “edema, inflammation, and cell necrosis of pancreas tissues induced by caerulein (histological scores)” value is on record as “all inhibited” in assay [1] and “all reduced” in [10]. Besides, the “expression of IL-1β in pancreas” value in the assay on IL-1β [2] is on record as “significantly reduced”. The “lung damage induced by caerulein” value is reported as “not inhibited” in the assay with NQO-1 knock out mouse [3] and “inhibited” in assay [14]. The “ratio of pancreas weight/body weight” value in [4] is listed as “significantly reduced dose-dependently”; with NQO-1 knock out mouse [6] it was “not significantly different”. Also, the “activity of serum lipase” value with lipase [5] is “not significantly different”. Further, the “lipase activity in serum” value with lipase [7] is given as “significantly reduced dose-dependently”. For the same molecule, the “serum IL-1β level” value in the assay on IL-1β [8] is “significantly reduced”. Also, the “activity of serum amylase” value with amylase [9] is “not significantly different”. In the assay on NQO-1 knock out mouse [11], the “edema, inflammation, and cell necrosis of pancreas tissues” value is given as “not reduced”. In addition, in the assay with amylase [12], the “amylase activity in serum” value is listed as “significantly reduced dose-dependently”. In addition, the “concentration of serum IL-1β” value in the assay with IL-1β [13] is “not much different”. Besides, the “expression of MCP-1 in pancreas” value in the assay on MCP-1 is given as “reduced dose-dependently”.

Turning to `CC1OC2=C(C(=O)C(=O)c3ccccc32)C1(C)C` (centres unmarked) [dunnione], the “edema, inflammation, and cell necrosis of pancreas tissues induced by caerulein (histological scores)” value in [1] is given as “all inhibited”. In the assay on IL-1β [2], the “expression of IL-1β in pancreas” value is “significantly reduced”. The “ratio of pancreas weight/body weight” value in assay [4] is “significantly reduced dose-dependently”. For the same molecule, in the assay on lipase [7], the “lipase activity in serum” value is given as “significantly reduced dose-dependently”. The “serum IL-1β level” value in the assay with IL-1β [8] was “significantly reduced”. Further, the “amylase activity in serum” value in the assay with amylase [12] is “significantly reduced dose-dependently”. Further, the “lung damage induced by caerulein” value in [14] is given as “significantly inhibited”. Further, in the assay with MCP-1, the “expression of MCP-1 in pancreas” value is “reduced dose-dependently”.
